Series [1] in a line: in vitro. The format is cell-based. The following applies: human. The protocol:
Cytotoxic activity against Huh-7 cells was assessed by the MTT assay, a modification of our previously described method. Following the treatment of cells with test samples, 10 μL of MTT (5.0 mg/mL saline) was added to each well, the samples were incubated for 90 min at 37 °C and centrifuged (300g for 5 min), and the supernatant was aspirated off. The cells were lysed and solubilized by the addition of 100 μL of 0.040 N HCl in 2-propanol. The absorbance of each well was determined at 590 nm using an Inter-med model NJ-2300 Microplate Reader (Cosmo Bio Co., Ltd., Tokyo, Japan). Survival (%) was calculated relative to the control.

The target of series [2] is T1, protein tyrosine phosphatase 1B (PTP1B) (Homo sapiens, UniProt P18031).
T1 sequence (P18031 1-435): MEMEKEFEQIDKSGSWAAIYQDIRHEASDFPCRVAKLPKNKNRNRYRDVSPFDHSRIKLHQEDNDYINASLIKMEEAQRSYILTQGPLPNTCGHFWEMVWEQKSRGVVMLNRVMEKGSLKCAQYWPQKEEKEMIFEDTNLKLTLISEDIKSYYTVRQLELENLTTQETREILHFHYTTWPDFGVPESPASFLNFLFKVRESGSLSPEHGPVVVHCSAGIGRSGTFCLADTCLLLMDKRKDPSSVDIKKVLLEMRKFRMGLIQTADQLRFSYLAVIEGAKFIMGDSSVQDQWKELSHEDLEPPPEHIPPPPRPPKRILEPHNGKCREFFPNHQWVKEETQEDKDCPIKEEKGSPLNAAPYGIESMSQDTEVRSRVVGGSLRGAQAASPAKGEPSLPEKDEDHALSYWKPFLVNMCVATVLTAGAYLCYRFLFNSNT
The series can be described thus: PTP1B inhibitory assay (pNPP hydrolysis). The format is biochemical. The following applies: pNPP substrate, pH 6.0, 37 °C, 30 min. The protocol:
Protein tyrosine phosphatase 1B (PTP1B) inhibitory activity was determined by measuring the rate of hydrolysis of a substrate, p-nitrophenyl phosphate (pNPP, Sigma, St. Louis, MO, USA) according to the published method with a slight modification. Briefly, PTP1B (100 μL of 0.5 μg/mL stock solution, Enzo Life Sciences, Farmingdale, NY, USA) in 50 mM citrate buffer (pH 6.0) containing 0.1 M NaCl, 1 mM dithiothreitol (DTT), and 1 mM N,N,N′,N′-ethylenediamine tetraacetate (EDTA) were added to each well of a 96-well plastic plate (Corning Inc., Corning, NY, USA). […] The reaction was initiated by the addition of pNPP (100 μL of 4.0 mM stock solution) in the citrate buffer, incubated at 37 °C for 30 min, and terminated with the addition of 10 μL of a stop solution (10 M NaOH). The optical density of each well was measured at 405 nm using an MTP-500 microplate reader (Corona Electric Co., Ltd., Ibaraki, Japan). PTP1B inhibitory activity (%) is defined as [1 − (ABSsample − ABSblank)/(ABScontrol − ABSblank)] × 100, where ABSblank is the absorbance of wells containing only the buffer and pNPP, ABScontrol is the absorbance of p-nitrophenol liberated by the enzyme in the assay system without a test sample, and ABSsample is that with a test sample. The assays were performed in two duplicate experiments for all test samples. Oleanolic acid (Tokyo Chemical Industry, Tokyo, Japan), a known phosphatase inhibitor [15], was used as a positive control.

The nature of series [3]: in vitro. The format is cell-based. The following applies: human. The protocol: (§1) HCT-15 and Jurkat cells were obtained from the Center for Biomedical Research, Institute of Development, Aging, and Cancer, Tohoku University (Miyagi, Japan). The cell lines were cultured in RPMI-1640 medium. The medium was supplemented with 10 % fetal bovine serum, 100 U/mL penicillin, and 100 μg/mL streptomycin. Exponentially growing cells, cultured in a humidified chamber at 37 °C containing 5.0 % CO2, were used for the experiments. Cytotoxic activity was evaluated using the colorimetric MTT assay. HCT-15 (1.0 × 10^4 cells in 100 μL) or Jurkat cells (2.0 × 10^4 cells in 100 μL) were added to each well of a 96-well plastic plate. A sample (1.0 μL in MeOH) was added to each well to make the final concentrations from 0 to 39–47 μM, and the cells were incubated for 48 h at 37 °C. MTT (10 μL of 5.5 mg/mL stock solution) and a cell lysate solution (90 μL, 40 % N,N-dimethylformamide, 20 % sodium dodecyl sulfate, 2.0 % CH3COOH and 0.030 % HCl) were added to each well, and the plate was shaken thoroughly by agitation at room temperature for overnight. The optical density of each well was measured at 570 nm using an MTP-500 microplate reader.
This is another data set of the same source.

The nature of series [4]: in vitro. Format: cell-based. Conditions: human. The protocol: as §1
The source holds these as a separate data set.

Each structure is given as a SMILES string. pIC50: −log10 of the molar value.

`COc1c(Br)cc(Br)cc1Oc1c(O)cc(Br)cc1Br` [Compound 1, 2-(3′,5′-dibromo-2′-methoxyphenoxy)-3,5-dibromophenol]: the pIC50 (in general, −log10 of the IC50, conventionally taken in molar units) in series [1] was 4.49; in series [2], 6.07. As to `COc1c(Br)cc(Br)cc1Oc1c(Br)cc(Br)cc1OC(C)=O` [Compound 3, 3,5-dibromo-2-(3′,5′-dibromo-2′-methoxyphenoxy)phenyl ethanoate], the pIC50 in series [2] is 6.21.

In turn, `CCCCCC(=O)Oc1cc(Br)cc(Br)c1Oc1cc(Br)cc(Br)c1OC` [Compound 5, 3,5-Dibromo-2-(3′,5′-dibromo-2′-methoxyphenoxy)phenyl hexanoate] showed a pIC50 in series [2] of 6.16. This pIC50 and that of the molecule before are within 0.2 log units of each other. With `COc1cc(Br)cc(Br)c1Oc1cc(Br)cc(Br)c1OC` [Compound 2, 3,5-dibromo-2-(3′,5′-dibromo-2′-methoxyphenoxy)-1-methoxybenzene], the IC50 at 48 h in series [3] and in series [4] was above 46000 nM throughout. For the same molecule, the negative logarithm of the IC50 (pIC50) in series [1] was 4.32; in series [2], 5.77. In the case of `COc1c(Br)cc(Br)cc1Oc1c(Br)cc(Br)cc1OC(=O)c1ccccc1` [Compound 6, 3,5-Dibromo-2-(3′,5′-dibromo-2′-methoxyphenoxy)phenyl benzoate], the pIC50 in series [2] was 6.01. Still for that read-out and setting: with `CCCC(=O)Oc1cc(Br)cc(Br)c1Oc1cc(Br)cc(Br)c1OC` [Compound 4, 3,5-Dibromo-2-(3′,5′-dibromo-2′-methoxyphenoxy)phenyl butanoate] the figure was 6.17.

For the origin of these results see publication PMC3765847, “A polybromodiphenyl ether from an Indonesian marine sponge Lamellodysideaherbacea and its chemical derivatives inhibit protein tyrosine phosphatase 1B, an important target for diabetes treatment” (Journal of Natural Medicines, 2012).
